IC50, efflux ratio and Papp data for 9 compounds are collected here from US11414404B2, “Compounds for the treatment of BRAF-associated diseases and disorders” (Array BioPharma Inc., priority 2019, dated 2022).

Structures are written as SMILES.

The term IC50 denotes the concentration needed to halve the response being measured. The efflux ratio is the permeability from basolateral to apical divided by that in the opposite direction, in the common usage. As a reminder, the Papp is a coefficient for how fast a substance crosses the barrier.

Series [1] has as its target full-length FLAG-tagged B-Raf(V600E) (Homo sapiens (Human), UniProt P15056, V600E). The series is described as follows: BRAF V600E enzyme assay (TR-FRET competitive displacement of fluorescent tracer). The class given is binding. Conditions: averaged IC50; 60 min at ambient temperature; 11-point dosing, top dose 10 μM. An excerpt:
A competitive displacement assay was configured for B-Raf that monitors the amount of a fluorescently-tagged “tracer” bound to B-Raf via TR-FRET from an anti-tag Eu-labeled antibody also bound to B-Raf.
[formula] • where: • Xmax Average Uninhibited Controls • Xmin Average Background
A 4-parameter logistic model was the fit to the POC data for each compound.
On the technique in general: In TR-FRET formats the signal depends on donor and acceptor labels being close together.

The target in another series is BCRP (Homo sapiens (Human), UniProt Q9UNQ0). The series is described as follows: BCRP MDCKII permeability assay: efflux ratio. The note with it: dog.
BCRP, sequence (Q9UNQ0 whole entry, species assumed): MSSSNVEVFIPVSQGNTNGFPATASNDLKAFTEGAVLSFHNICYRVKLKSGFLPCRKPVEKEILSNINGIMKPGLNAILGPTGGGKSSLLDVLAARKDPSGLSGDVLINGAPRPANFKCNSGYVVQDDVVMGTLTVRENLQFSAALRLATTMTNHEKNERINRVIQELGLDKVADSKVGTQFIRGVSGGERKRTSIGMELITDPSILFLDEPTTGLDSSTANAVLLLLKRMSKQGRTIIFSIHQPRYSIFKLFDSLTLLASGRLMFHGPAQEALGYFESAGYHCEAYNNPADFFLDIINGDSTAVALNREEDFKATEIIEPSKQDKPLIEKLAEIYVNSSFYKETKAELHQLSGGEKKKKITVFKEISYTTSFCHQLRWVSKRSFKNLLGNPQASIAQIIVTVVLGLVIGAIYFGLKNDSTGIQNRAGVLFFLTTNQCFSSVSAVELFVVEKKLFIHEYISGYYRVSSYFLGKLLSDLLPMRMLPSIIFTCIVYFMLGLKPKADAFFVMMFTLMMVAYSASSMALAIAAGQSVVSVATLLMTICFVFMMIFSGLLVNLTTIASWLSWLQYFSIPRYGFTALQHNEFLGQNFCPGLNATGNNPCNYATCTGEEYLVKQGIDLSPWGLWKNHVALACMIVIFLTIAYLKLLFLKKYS
The target in another series is P-gp (MDR1) (Homo sapiens (Human), UniProt P08183). The series is described as follows: MDR1 LLC-PK1 permeability assay: efflux ratio. Conditions: pig, LLC-PK1.
P-gp (MDR1), sequence (P08183 whole entry, species assumed): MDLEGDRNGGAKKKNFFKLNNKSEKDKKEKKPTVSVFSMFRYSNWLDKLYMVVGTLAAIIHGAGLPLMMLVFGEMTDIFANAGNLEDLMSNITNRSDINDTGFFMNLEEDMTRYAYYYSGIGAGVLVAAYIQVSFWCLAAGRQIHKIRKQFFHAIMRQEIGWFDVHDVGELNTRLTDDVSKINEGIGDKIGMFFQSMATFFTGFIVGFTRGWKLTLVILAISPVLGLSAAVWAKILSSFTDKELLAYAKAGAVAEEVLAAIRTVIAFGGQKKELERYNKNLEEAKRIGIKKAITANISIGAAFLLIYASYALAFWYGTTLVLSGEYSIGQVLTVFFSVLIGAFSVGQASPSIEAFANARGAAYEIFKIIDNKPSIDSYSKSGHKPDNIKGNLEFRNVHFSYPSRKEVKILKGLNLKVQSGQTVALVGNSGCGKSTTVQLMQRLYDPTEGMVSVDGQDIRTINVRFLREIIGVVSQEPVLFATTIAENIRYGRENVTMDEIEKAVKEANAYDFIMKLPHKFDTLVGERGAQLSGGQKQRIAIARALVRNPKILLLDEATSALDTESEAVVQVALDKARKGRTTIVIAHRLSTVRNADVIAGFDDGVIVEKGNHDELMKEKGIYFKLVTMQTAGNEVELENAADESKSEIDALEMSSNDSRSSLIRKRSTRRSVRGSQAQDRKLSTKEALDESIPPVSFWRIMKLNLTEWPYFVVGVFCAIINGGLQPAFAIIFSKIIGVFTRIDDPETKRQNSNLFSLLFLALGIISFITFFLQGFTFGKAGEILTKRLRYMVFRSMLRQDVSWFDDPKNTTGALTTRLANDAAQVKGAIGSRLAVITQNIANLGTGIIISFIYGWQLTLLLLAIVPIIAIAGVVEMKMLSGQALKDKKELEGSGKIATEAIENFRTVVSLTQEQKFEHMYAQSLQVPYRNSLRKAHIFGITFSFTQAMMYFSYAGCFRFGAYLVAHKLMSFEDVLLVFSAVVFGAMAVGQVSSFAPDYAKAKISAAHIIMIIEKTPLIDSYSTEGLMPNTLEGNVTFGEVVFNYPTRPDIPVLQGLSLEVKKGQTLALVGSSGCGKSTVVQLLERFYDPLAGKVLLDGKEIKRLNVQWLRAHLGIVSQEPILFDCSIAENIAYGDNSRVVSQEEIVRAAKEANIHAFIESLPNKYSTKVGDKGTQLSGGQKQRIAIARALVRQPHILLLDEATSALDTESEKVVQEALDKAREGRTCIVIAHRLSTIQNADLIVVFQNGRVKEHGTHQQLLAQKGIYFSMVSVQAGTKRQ
Series [2] can be described thus: MDR1 LLC-PK1 and BCRP MDCKII permeability assay: permeability coefficient (Papp).

full-length FLAG-tagged B-Raf(V600E), sequence (P15056 whole entry V600E): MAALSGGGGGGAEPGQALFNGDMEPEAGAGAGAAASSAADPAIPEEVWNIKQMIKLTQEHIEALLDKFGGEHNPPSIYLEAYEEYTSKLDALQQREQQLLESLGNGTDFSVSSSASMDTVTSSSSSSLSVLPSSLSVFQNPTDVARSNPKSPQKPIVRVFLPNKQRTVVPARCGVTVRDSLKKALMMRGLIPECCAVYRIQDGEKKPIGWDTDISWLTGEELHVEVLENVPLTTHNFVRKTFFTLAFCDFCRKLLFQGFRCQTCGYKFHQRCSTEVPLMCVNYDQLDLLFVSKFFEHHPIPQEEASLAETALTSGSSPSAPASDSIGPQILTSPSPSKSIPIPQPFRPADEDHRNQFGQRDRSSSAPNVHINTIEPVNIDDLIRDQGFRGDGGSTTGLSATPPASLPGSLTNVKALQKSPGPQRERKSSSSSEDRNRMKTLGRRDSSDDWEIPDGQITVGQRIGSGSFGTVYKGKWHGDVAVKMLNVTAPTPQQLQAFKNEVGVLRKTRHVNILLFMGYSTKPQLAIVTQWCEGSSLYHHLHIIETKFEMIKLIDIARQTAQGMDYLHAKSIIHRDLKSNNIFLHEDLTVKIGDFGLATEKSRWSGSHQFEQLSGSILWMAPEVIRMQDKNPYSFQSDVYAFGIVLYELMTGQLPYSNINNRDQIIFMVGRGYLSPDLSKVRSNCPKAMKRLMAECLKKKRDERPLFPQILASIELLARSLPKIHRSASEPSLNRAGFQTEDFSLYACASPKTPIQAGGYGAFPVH
Protocol for P-gp (MDR1): Both LLC-PK1 and MDR1 transfected LLC-PK1 cells were cultured and plated according to manufacturer's recommendations with the exception that the passage media contained only 2% fetal bovine serum to extend passage time out to seven days.
Both positive and negative controls were used to assess functionality of P-gp or BCRP efflux in the assays. […] Final organic concentration in the assay was 1%. All dosing solutions contained 10 μM lucifer yellow to monitor LLC-PK1 or MDCKII cell monolayer integrity.
For the apical to basolateral determination (A to B), 75 μL of the test article in transport buffer were added to the apical side of the individual transwells and 250 μL of basolateral media, without compound or lucifer yellow, were added to each well. For the basolateral to apical determination (B to A), 250 μL of test article in transport buffer were added to each well and 75 μL transport buffer, without compound or lucifer yellow, were added to each transwell. All tests were performed in triplicate, and each compound was tested for both apical to basolateral and basolateral to apical transport. The plates were incubated for 2 hours on a Lab-Line Instruments Titer Orbital Shaker (VWR, West Chester, Pa.) at 50 rpm and 37° C. with 5% CO2. All culture plates were removed from the incubator and 50 μL of media were removed from the apical and basolateral portion of each well and added to 150 μL of 1 μM labetalol in 2:1 acetonitrile (acetonitrile): H2O, v/v.
These values were accepted when found to be below 2% for apical to basolateral and 5% basolateral to apical flux across the MDR1-transfected LLC-PK1 or BCRP-transfected MDCKII cell monolayers. The plates were sealed and the contents of each well analyzed by LC-MS/MS. The compound concentrations were determined from the ratio of the peak areas of the compound to the internal standard (labetalol) in comparison to the dosing solution.
The LC-MS/MS system was comprised of an HTS-PAL autosampler (Leap Technologies, Carrboro, N.C.), an HP1200 HPLC (Agilent, Palo Alto, Calif.), and a MDS Sciex 4000 Q Trap system (Applied Biosystems, Foster City, Calif.). […] The total run time, including re-equilibration, for a single injection was 1.2 minutes. Mass spectrometric detection of the analytes was accomplished using the ion spray positive mode.
An efflux ratio is calculated from the mean apical to basolateral (A−B) Papp data and basolateral to apical (B−A) Papp data: Efflux ratio=Papp(B−A)/Papp(A−B)

`CCCS(=O)(=O)Nc1ccc(F)c(Nc2ccc3ncn(CC(F)(F)F)c(=O)c3c2C)c1Cl` [Example 59, N-(2-chloro-4-fluoro-3-((5-methyl-4-oxo-3-(2,2,2-trifluoroethyl)-3,4-dihydroquinazolin-6-yl)amino)phenyl)propane-1-sulfonamide] registered an IC50 in series [1] of 3.4 nM. The efflux ratio at 2 h, 1 µM on BCRP worked out at 1.08; at P-gp (MDR1), 1.36. The compound also registered a Papp at 2 h, 1 µM in series [2] of 25.1 ×10⁻⁶ cm/s.

For the compound `C#Cc1c(Nc2c(F)ccc(NS(=O)(=O)CCC)c2Cl)ccc2ncn(C)c(=O)c12` [Example 60, N-(2-chloro-3-((5-ethynyl-3-methyl-4-oxo-3,4-dihydroquinazolin-6-yl)amino)-4-fluorophenyl)propane-1-sulfonamide], the IC50 in series [1] was determined as 9.25 nM. For the same compound, the efflux ratio at 2 h, 1 µM came to 2.35 at BCRP and 2.3 at P-gp (MDR1). This compound showed a Papp at 2 h, 1 µM in series [2] of 29 ×10⁻⁶ cm/s.

The compound `CCC(C)S(=O)(=O)Nc1ccc(F)c(Nc2ccc3ncn(C)c(=O)c3c2C)c1Cl` (stereo not drawn) [Example 61, N-(2-chloro-3-((3,5-dimethyl-4-oxo-3,4-dihydroquinazolin-6-yl)amino)-4-fluorophenyl)butane-2-sulfonamide] yielded an IC50 in series [1] of 97.7 nM. Further, the efflux ratio at 2 h, 1 µM on BCRP stood at 0.84; on P-gp (MDR1), 1.2. For the same compound, in series [2], the Papp at 2 h, 1 µM worked out at 26.6 ×10⁻⁶ cm/s.

On to `CCCS(=O)(=O)Nc1ncc(F)c(Oc2ccc3ncn(C)c(=O)c3c2C)c1F` [Example 62, N-(4-((3,5-dimethyl-4-oxo-3,4-dihydroquinazolin-6-yl)oxy)-3,5-difluoropyridin-2-yl)propane-1-sulfonamide], for which, in series [1], the IC50 turned out to be 15.8 nM. For the same compound, the values for the efflux ratio at 2 h, 1 µM at BCRP and at P-gp (MDR1) were 22.5 and 2.3, respectively. In series [2], this compound showed a Papp at 2 h, 1 µM of 26.3 ×10⁻⁶ cm/s.

`Cc1c(Oc2c(F)cnc(NS(=O)(=O)CCCF)c2F)ccc2ncn(C)c(=O)c12` [Example 64, N-(4-((3,5-dimethyl-4-oxo-3,4-dihydroquinazolin-6-yl)oxy)-3,5-difluoropyridin-2-yl)-3-fluoropropane-1-sulfonamide] yielded an IC50 in series [1] of 10.4 nM. For the same compound, the results for the efflux ratio at 2 h, 1 µM at BCRP and at P-gp (MDR1) were 31 and 10.9, respectively. Also, the Papp at 2 h, 1 µM in series [2] worked out at 9.78 ×10⁻⁶ cm/s.

Regarding `CCCS(=O)(=O)Nc1ccc(F)c(Sc2ccc3ncn(C)c(=O)c3c2C)c1Cl` [Example 65, N-(2-chloro-3-((3,5-dimethyl-4-oxo-3,4-dihydroquinazolin-6-yl)thio)-4-fluorophenyl)propane-1-sulfonamide], the IC50 in series [1] was 92.4 nM. The efflux ratio at 2 h, 1 µM was 0.9 at BCRP and 1.4 at P-gp (MDR1). The same compound yielded an apparent permeability (Papp) at 2 h, 1 µM in series [2] of 177 ×10⁻⁶ cm/s.

In the case of `CCCS(=O)(=O)Nc1cccc(Oc2ccc3ncn(C)c(=O)c3c2C)c1C#N` [Example 66, N-{2-Cyano-3-[(3,5-dimethyl-4-oxo-3,4-dihydroquinazolin-6-yl)oxy]phenyl}propane-1-sulfonamide], the IC50 in series [1] stood at 4.08 nM. For the same compound, the efflux ratio at 2 h, 1 µM at BCRP came out at 27.9; on P-gp (MDR1), 1.7. This compound also registered a Papp at 2 h, 1 µM in series [2] of 23.1 ×10⁻⁶ cm/s.

In turn, `CCCS(=O)(=O)Nc1cccc(Oc2ccc3ncn(C)c(=O)c3c2C)c1F` [Example 68, N-(3-((3,5-dimethyl-4-oxo-3,4-dihydroquinazolin-6-yl)oxy)-2-fluorophenyl)propane-1-sulfonamide] came in with a half-inhibitory concentration (IC50) in series [1] of 33 nM. Besides, the results for the efflux ratio at 2 h, 1 µM at BCRP and at P-gp (MDR1) were 1.3 and 1.2, respectively. For the same compound, the Papp at 2 h, 1 µM in series [2] was found to be 28.5 ×10⁻⁶ cm/s.

In series [1], `CCCS(=O)(=O)Nc1ccc(F)c(Oc2ccc3ncn(C)c(=O)c3c2C)c1C#N` [Example 69, N-(2-cyano-3-((3,5-dimethyl-4-oxo-3,4-dihydroquinazolin-6-yl)oxy)-4-fluorophenyl)propane-1-sulfonamide] yielded an IC50 of 0.46 nM. For the same compound, the figures for the efflux ratio at 2 h, 1 µM on BCRP and on P-gp (MDR1) were 23.8 and 4.1, respectively. The compound also showed a Papp at 2 h, 1 µM in series [2] of 24.4 ×10⁻⁶ cm/s.
